Source: ChEMBL document CHEMBL4725268, “Anticonvulsant and analgesic in neuropathic pain activity in a group of new aminoalkanol derivatives” (Bioorg Med Chem Lett, 2020)
Active and inactive are the calls of the source.

How the values were obtained:
[1] = Genotoxicity in Salmonella typhimurium TA100 assessed as number of revertant at 750 ug by AMES test (reference value: 64.3 to 130.7); assay type: toxicity, Salmonella enterica subsp. enterica serovar Typhimurium; conditions: in vivo; dose 750 µg
[2] = Genotoxicity in Salmonella typhimurium TA100 assessed as number of revertant at 500 ug by AMES test (reference value: 64.3 to 130.7); assay type: toxicity, Salmonella enterica subsp. enterica serovar Typhimurium; conditions: in vivo; dose 500 µg
[3] = target: T1, 5-hydroxytryptamine receptor 1A (Homo sapiens) (UniProt P08908); assay: Binding affinity to 5-HT1A (unknown origin) at 10^-5 M; conditions: dose 1.0 10^-5M
T1 sequence (whole entry): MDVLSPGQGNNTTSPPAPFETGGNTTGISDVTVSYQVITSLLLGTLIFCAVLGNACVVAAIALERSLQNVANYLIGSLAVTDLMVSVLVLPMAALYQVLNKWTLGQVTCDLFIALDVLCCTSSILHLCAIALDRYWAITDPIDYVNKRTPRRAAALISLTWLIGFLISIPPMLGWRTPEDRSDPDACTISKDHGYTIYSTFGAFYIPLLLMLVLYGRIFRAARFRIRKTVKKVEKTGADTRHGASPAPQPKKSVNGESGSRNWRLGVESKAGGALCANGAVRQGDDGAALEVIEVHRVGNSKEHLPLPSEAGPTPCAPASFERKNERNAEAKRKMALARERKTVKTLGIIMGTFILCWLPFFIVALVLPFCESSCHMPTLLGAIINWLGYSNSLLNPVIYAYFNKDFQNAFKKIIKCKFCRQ

[4] = Genotoxicity in Salmonella typhimurium TA100 assessed as mutagenic index at 75 ug by AMES test; assay type: toxicity, Salmonella enterica subsp. enterica serovar Typhimurium; conditions: in vivo; dose 75 µg
[5] = Genotoxicity in Salmonella typhimurium TA98 assessed as number of revertant at 10 ug by AMES test (reference value: 8 to 8.3); assay type: toxicity, Salmonella enterica subsp. enterica serovar Typhimurium; conditions: in vivo; dose 10 µg
in vitro [6] = conditions: mouse, microsomes
Description: Metabolic stability in mouse microsome assessed as intrinsic clearance

[7] = Toxicity in ip dosed mouse assessed as motor impairment by rotarod test; assay type: organism-based; conditions: in vivo
[8] = Genotoxicity in Salmonella typhimurium TA98 assessed as mutagenic index at 75 ug by AMES test; assay type: toxicity, Salmonella enterica subsp. enterica serovar Typhimurium; conditions: in vivo; dose 75 µg
[9] = Genotoxicity in Salmonella typhimurium TA98 assessed as mutagenic index at 200 ug by AMES test; assay type: toxicity, Salmonella enterica subsp. enterica serovar Typhimurium; conditions: in vivo; dose 200 µg
[10] = Genotoxicity in Salmonella typhimurium TA100 assessed as mutagenic index at 500 ug by AMES test; assay type: toxicity, Salmonella enterica subsp. enterica serovar Typhimurium; conditions: in vivo; dose 500 µg
[11] = Genotoxicity in Salmonella typhimurium TA100 assessed as number of revertant at 200 ug by AMES test (reference value: 64.3 to 130.7); assay type: toxicity, Salmonella enterica subsp. enterica serovar Typhimurium; conditions: in vivo; dose 200 µg
[12] = Genotoxicity in Salmonella typhimurium TA100 assessed as number of revertant at 10 ug by AMES test (reference value: 64.3 to 130.7); assay type: toxicity, Salmonella enterica subsp. enterica serovar Typhimurium; conditions: in vivo; dose 10 µg
[13] = Genotoxicity in Salmonella typhimurium TA98 assessed as number of revertant at 200 ug by AMES test (reference value: 8 to 8.3); assay type: toxicity, Salmonella enterica subsp. enterica serovar Typhimurium; conditions: in vivo; dose 200 µg
[14] = Genotoxicity in Salmonella typhimurium TA98 assessed as mutagenic index at 750 ug by AMES test; assay type: toxicity, Salmonella enterica subsp. enterica serovar Typhimurium; conditions: in vivo; dose 750 µg
[15] = Genotoxicity in Salmonella typhimurium TA100 assessed as mutagenic index at 10 ug by AMES test; assay type: toxicity, Salmonella enterica subsp. enterica serovar Typhimurium; conditions: in vivo; dose 10 µg
[16] = Genotoxicity in Salmonella typhimurium TA100 assessed as mutagenic index at 750 ug by AMES test; assay type: toxicity, Salmonella enterica subsp. enterica serovar Typhimurium; conditions: in vivo; dose 750 µg
[17] = Genotoxicity in Salmonella typhimurium TA98 assessed as number of revertant at 500 ug by AMES test (reference value: 8 to 8.3); assay type: toxicity, Salmonella enterica subsp. enterica serovar Typhimurium; conditions: in vivo; dose 500 µg
[18] = Genotoxicity in Salmonella typhimurium TA98 assessed as mutagenic index at 10 ug by AMES test; assay type: toxicity, Salmonella enterica subsp. enterica serovar Typhimurium; conditions: in vivo; dose 10 µg
[19] = Protection index, ratio of TD50 for toxicity in ip dosed mouse to ED50 for anticonvulsant activity in ip dosed mouse; assay type: organism-based; conditions: in vivo, read-out: PI
in vitro [20] = conditions: mouse, microsomes; remark: listed apart in the source
Description: Metabolic stability in mouse microsome assessed as half life

[21] = Genotoxicity in Salmonella typhimurium TA98 assessed as number of revertant at 75 ug by AMES test (reference value: 8 to 8.3); assay type: toxicity, Salmonella enterica subsp. enterica serovar Typhimurium; conditions: in vivo; dose 75 µg
[22] = Genotoxicity in Salmonella typhimurium TA98 assessed as mutagenic index at 500 ug by AMES test; assay type: toxicity, Salmonella enterica subsp. enterica serovar Typhimurium; conditions: in vivo; dose 500 µg
Mus musculus [23] = assay: Anticonvulsant activity in ip dosed mouse assessed as protection against current-induced seizure by maximal electroshock seizure test; assay type: functional
[24] = Genotoxicity in Salmonella typhimurium TA98 assessed as number of revertant at 750 ug by AMES test (reference value: 8 to 8.3); assay type: toxicity, Salmonella enterica subsp. enterica serovar Typhimurium; conditions: in vivo; dose 750 µg
[25] = Genotoxicity in Salmonella typhimurium TA100 assessed as number of revertant at 75 ug by AMES test (reference value: 64.3 to 130.7); assay type: toxicity, Salmonella enterica subsp. enterica serovar Typhimurium; conditions: in vivo; dose 75 µg
[26] = Genotoxicity in Salmonella typhimurium TA100 assessed as mutagenic index at 200 ug by AMES test; assay type: toxicity, Salmonella enterica subsp. enterica serovar Typhimurium; conditions: in vivo; dose 200 µg
[27] = Toxicity in mouse assessed as lethality at 50 mg/kg, ip; assay type: organism-based; conditions: in vivo
[28] = Drug metabolism in mouse microsome assessed as formation of monohydroxylated metabolite; assay type: ADME; conditions: microsomes
Clostridioides difficile = assay: Antimicrobial activity against clinical strain Clostridium difficile assessed as reduction in bacterial growth at 0.195 to 100 ug/ml by disk diffusion method; assay type: organism-based; conditions: in vivo, dose 0.195-100 µg/ml
Escherichia coli [29] = assay: Antimicrobial activity against Escherichia coli ATCC 25922 assessed as reduction in bacterial growth at 0.195 to 100 ug/ml by serial dilution method; assay type: organism-based; conditions: in vivo, dose 0.195-100 µg/ml
Mus musculus [30] = assay: Antiallodynic activity in mouse model of OXA-induced peripheral neuropathy assessed as mean latency time to nocifensive response at 18 mg/kg, ip administered after 7 days of OXA stimulation and measured after 1 hr by cold plate method (reference value: 57.64 +/- 1.267 sec); assay type: functional
[31] = Antimicrobial activity against clinical strain Bifidobacterium assessed as reduction in bacterial growth at 0.195 to 100 ug/ml by disk diffusion method; conditions: dose 0.195-100 µg/ml
Salmonella enterica = assay: Antimicrobial activity against Salmonella enterica ATCC 51957 assessed as reduction in bacterial growth at 0.195 to 100 ug/ml by serial dilution method; assay type: organism-based; conditions: in vivo, dose 0.195-100 µg/ml
Hoylesella loescheii = assay: Antimicrobial activity against Prevotella loescheii ATCC 15930 assessed as reduction in bacterial growth at 0.195 to 100 ug/ml by disk diffusion method; assay type: organism-based, DSM 19665 = JCM 12249 = ATCC 15930; conditions: in vivo, dose 0.195-100 µg/ml
Enterococcus faecalis = assay: Antimicrobial activity against Enterococcus faecalis ATCC 29212 assessed as reduction in bacterial growth at 0.195 to 100 ug/ml by serial dilution method; assay type: organism-based; conditions: in vivo, dose 0.195-100 µg/ml
Mus musculus [32] = assay: Antiallodynic activity in mouse model of OXA-induced peripheral neuropathy assessed as mean paw withdrawal threshold at 18 mg/kg, ip administered after 3 hrs of OXA stimulation and measured after 1 hr by Von-frey method (reference value: 3.144 +/- 0.169 g); assay type: functional
Bacteroides fragilis = assay: Antimicrobial activity against Bacteroides fragilis ATCC 25285 assessed as reduction in bacterial growth at 0.195 to 100 ug/ml by disk diffusion method; assay type: organism-based; conditions: in vivo, dose 0.195-100 µg/ml
Staphylococcus aureus [33] = assay: Antimicrobial activity against clinical strain Staphylococcus aureus assessed as reduction in bacterial growth at 0.195 to 100 ug/ml by serial dilution method; assay type: organism-based; conditions: in vivo, dose 0.195-100 µg/ml
[34] = Genotoxicity in Salmonella typhimurium TA100 assessed as mutagenic index at 1000 ug by AMES test; assay type: toxicity, Salmonella enterica subsp. enterica serovar Typhimurium; conditions: in vivo; dose 1000 µg
Mus musculus [35] = assay: Antiallodynic activity in mouse model of OXA-induced peripheral neuropathy assessed as mean latency time to nocifensive response at 18 mg/kg, ip administered after 3 hrs of OXA stimulation and measured after 1 hr by cold plate method (reference value: 59.76 +/- 0.16 sec); assay type: functional
Mus musculus [36] = assay: Antiallodynic activity in mouse model of OXA-induced peripheral neuropathy assessed as mean paw withdrawal threshold at 18 mg/kg, ip administered after 7 days of OXA stimulation and measured after 1 hr by Von-frey method (reference value: 3.192 +/- 0.181 g); assay type: functional
[37] = Toxicity in mouse assessed as lethality at 10 mg/kg, ip; assay type: organism-based; conditions: in vivo
Staphylococcus aureus [38] = assay: Antimicrobial activity against Staphylococcus aureus ATCC 25923 assessed as reduction in bacterial growth at 0.195 to 100 ug/ml by serial dilution method; assay type: organism-based; conditions: in vivo, dose 0.195-100 µg/ml
[39] = Genotoxicity in Salmonella typhimurium TA100 assessed as number of revertant at 1000 ug by AMES test (reference value: 64.3 to 130.7); assay type: toxicity, Salmonella enterica subsp. enterica serovar Typhimurium; conditions: in vivo; dose 1000 µg
Escherichia coli [40] = assay: Antimicrobial activity against Escherichia coli ATCC 35218 assessed as reduction in bacterial growth at 0.195 to 100 ug/ml by serial dilution method; assay type: organism-based; conditions: in vivo, dose 0.195-100 µg/ml
[41] = Antioxidant activity assessed as DPPH radical scavenging activity at 125 to 1000 uM by microplate method; assay type: functional; conditions: dose microM 125-1000

| Compound | Activity [2] | Activity [3] | Activity_index [4] | Activity [5] | TD50 [7] [mg/kg] | Activity_index [8] | Activity_index [9] | Activity_index [10] | Activity [11] | Activity [12] | Activity [13] | Activity_index [14] | Activity_index [15] | Activity [17] | Activity_index [18] | selectivity ratio [19] | Activity [21] | Activity_index [22] | ED50 (Mus musculus [23]) [mg/kg] | Activity [24] | also measured |
| --- | --- | --- | --- | --- | --- | --- | --- | --- | --- | --- | --- | --- | --- | --- | --- | --- | --- | --- | --- | --- | --- |
| Cc1ccc(OCCCN2CCCC(O)C2)c(C)c1 (racemic) | 81 | inactive | 1 | 6.3 | 108 | 0.8 | 1.2 | 1.1 | 88.5 | 89.5 | 6.7 | 1 | 1.2 | 4.7 | 0.4 | 3.09 | 8 | 1 | 34.8 | 3.3 | Activity [1]: 3869.5; microsomal CLint (in vitro [6]): 60.5 µL/min/mg; Activity_index [16]: 53.4; half-life (in vitro [20]): 28.6 min; Activity [25]: 69.5; Activity_index [26]: 1.2; Activity [27]: Non-Toxic; Drug metabolism [28]: Metabolite_Detected |
| Cc1cc(C)c(C)c(OCCCN2CCC(O)CC2)c1 | 944 | inactive | 0.8 | 12 | 63.4 | 1.8 | 1.3 | 14.7 | 42 | 66 | 11 | 43.7 | 1 | 6.7 | 1.4 | 3.58 | 15.3 | 0.8 | 17.7 | 364.3 | Activity (Clostridioides difficile): Non-Toxic; Activity (Escherichia coli [29]): Non-Toxic; Time (Mus musculus [30]): 8.833 s; Activity [31]: Non-Toxic; Activity (Salmonella enterica): Non-Toxic; Activity (Hoylesella loescheii): Non-Toxic; Activity (Enterococcus faecalis): Non-Toxic; Activity (Mus musculus [32]): 1.921 g; Activity (Bacteroides fragilis): Non-Toxic; Activity (Staphylococcus aureus [33]): Non-Toxic; Activity_index [34]: 18.5; Time (Mus musculus [35]): 15.167 s; Activity (Mus musculus [36]): 2.027 g; Activity [37]: Non-Toxic; Activity [25]: 52.3; Activity (Staphylococcus aureus [38]): Non-Toxic; Activity_index [26]: 0.7; Activity [39]: 1190; Activity (Escherichia coli [40]): Non-Toxic; Activity [41]: inactive |
